Measurements published in US20090197279A1, “MICROTUBULE SYNTHESIS AS A BIOMARKER” (KINEMED, INC., priority 2005, published 2009).
Entries after “also recorded” stand apart in the source; their conditions may differ.

Assays:
[1] = system: total hippocampal proteins; test: Fractional synthesis of total hippocampal proteins; format: in vivo, mouse; settings: glutamate ICVC vs mock-treated animals
Description: FIG. 7 depicts the effects of ICV glutamate on the relative amounts of MT subpopulations and on total protein synthesis in murine hippocampus. (A, B) Tubulin abundances are measured by Western blot analysis for α-tubulin at 8 hour (A) and 24 hours (B). Subpopulations were total extract (total), free tubulin dimers, tau-associated MTs, tau-nonassociated (MAP2/STOP) MTs and cold stable (CS) MTs. Mock and glutamate infused ICVC mice are shown (cf. FIGS. 6A and B). […] (C) Fractional synthesis of total hippocampal proteins. Glutamate increased protein synthesis versus mock-treated animals (*p<0.01); this effect was blocked by coadministration with 0.66 pmol of Rp-cAMP (**p<0.02).
This hypothesis had not previously been tested in the living brain, however. To test this hypothesis, we used the methods of the invention disclosed herein. Mice were infused with 6 μl water containing 0.48 nmol glutamate (80 μM in the infusate), or glutamate plus 0.66 pmol Rp-cAMP (110 nM in the infusate). Label incorporation into hippocampal tubulin dimers and into microtubule polymers was then quantified after administration of ^2H2O for 8 hours or 24 hours (FIGS. 7A and 7B). […] These findings further strengthen the previously reported correlation between hippocampus glutamate NMDA receptor-dependent learning (long-term potentiation) and protein synthesis (Kandel, E. R. The molecular biology of memory storage: a dialogue between genes and synapses. Science 294, 1030-1038 (2001)). By the same criterion, the glutamate-induced program of changes in hippocampal microtubule dynamics shown in FIGS. 6 and 7 also alters hippocampal total protein synthesis in vivo (data not show), further supporting the capacity of the invention disclosed herein to generate a biochemical record of basic neuroanatomic connectivity in the brain and thereby to reveal the dynamics of synaptogenesis in vivo.

[2] = system: C57BL/6JBomTac mice; test: Contextual fear conditioning (CFC), freezing behavior; format: in vivo, mouse
From the text: FIG. 10 depicts microtubule/tubulin exchange during hippocampus-dependent contextual memory. (A) Protocol for measurement of microtubule/tubulin exchange during contextual fear conditioning (CFC). Tubulin dimers and microtubules subsets were labeled to plateau through continuous ^2H2O labeling, starting one day before CFC training. Labeling was continued throughout CFC training (Day 2) and the contextual conditioning test until mice were euthanized (Day 3). Vehicle or nocodazole treated-mice were injected 4 hours before CFC training, consisting of three pairings of conditioned and unconditioned stimuli inside an observation chamber, as described in Example 7 below. […] Microtubule subpopulations were fractionated as described below, and the percentage of newly synthesized tubulin was quantified by GC/MS (mean±SD, n=3). […]
Fear conditioning experiments were done as previously described (Bourtchouladze, R. et al. Different training procedures recruit either one or two critical periods for contextual memory consolidation, each of which requires protein synthesis and PKA. Learn. Mem. 5, 365-374 (1998)). […] On day later, contextual conditioning was assessed for 3 consecutive minutes in the chamber in which the mice were trained (CFC test). […]

N[C@@H](CCC(=O)[O-])C(=O)[O-].[K+].[K+] [glutamate, potassium L-glutamate]
fractional synthesis of total hippocampal proteins [1]: alters
fractional synthesis of total hippocampal proteins ([1]; listed as Glutamate): increased

COC(=O)Nc1nc2ccc(C(=O)c3cccs3)cc2[nH]1 [nocodazole]
freezing behavior (% of freezing to context), CFC test ([2]; nocodazole 0.2 mg/kg i.p. 4 hours before CFC training, test one day after training, vs vehicle-treated mice): significant reduction; also recorded: significantly lower
contextual fear responses measured immediately after training ([2]; nocodazole vs vehicle, data not shown): similar
